Key:
Assay type in all cases: cell-based, Influenza A virus
A/Malaya/302/1954 (H1N1) = assay: microbe, parasite or virus in culture; conditions: read-out: EC50
[1] = system: Oseltamivir-resistant A/Weiss/1943 (NA H275Y)
[2] = system: Baloxavir-resistant A/Puerto Rico/8/1934 (PA I38T)

Which EC50 (A/Malaya/302/1954 (H1N1)) does the source give for COC[C@@]1(C)COC[C@@H](COc2ccc(-c3cc(C(N)=O)c(O)nc3C(F)(F)F)cc2)O1 [VNT-101] here?
Its EC50 is > 50000 nM.

And the EC50 [1]?
Its EC50 is 118 nM.

Which results are given for O=C1c2c(O)c(=O)ccn2N([C@@H]2c3ccccc3SCc3c2ccc(F)c3F)[C@@H]2COCCN12 [Baloxavir, baloxavir, reference compound]?
EC50 [2]: 105 nM; EC50 (A/Malaya/302/1954 (H1N1)): 1.1 nM; EC50 [1]: 0.42 nM

Which EC50 [2] does the source give for CCOC(=O)C1=C[C@@H](OC(CC)CC)[C@H](NC(C)=O)[C@@H](N)C1 [Oseltamivir, oseltamivir, reference compound] here?
The EC50 was 2810 nM.

And the Fold shift [2]?
The Fold shift was 2.89.

What about the EC50 (A/Malaya/302/1954 (H1N1)) of the same compound?
The EC50 was 1150 nM.

What about the EC50 [1] of the same compound?
Its EC50 is > 78400 nM.

What about the Fold shift [1] of the same compound?
Its Fold shift is >74.66.

From article PMC12888856 (Antimicrobial Agents and Chemotherapy, 2025)
